Reference: patent US6623953B1, “Enzymatic composition and method for seasoning wood” (ETS. Robert Stiernon S.A., priority 1998, dated 2003)

System: phenol heterosidase activity of the enzymatic preparation
Experiment: Inhibition of the phenol heterosidase activity by phenol compounds
Format: biochemical
Conditions: concentration 1 g/l
Procedure: The measurement of phenol heterosidase enzymatic activity PeH is based on the release of carboxylic functions which lower the pH of the reaction medium. 9 mg of an aqueous extract of green oak are added, in a test tube, to 9 ml of a 0.1 M NaCl solution, pH 4.5, containing 1% of enzymatic preparation EP. A control tube is prepared under the same conditions, without enzymes. The pH is measured in the two tubes at time 0 (pHc0 for the control and pHe0 for the enzyme) and after 4 hours of incubation at 25° C. (pHc4 and pHe4, respectively). The optimum conditions were established beforehand and there is perfect correlation between the release of glucose and the drop in pH.
The phenol heterosidase activity is calculated from the equation:
PeH=[(pHc0−pHc4)−(pHe0−pHe4)/4]×100 (PeH being expressed in 10^−3 units of pH/ml/h)
In general, all the heteroside substrates are used by the enzymatic activities present. Only the condensed tannins from grape show inhibition of the phenol heterosidase activity.

O=C1OCC2OC(=O)c3cc(O)c(O)c(O)c3-c3c(O)c(O)c(O)c4c3C(=O)OC(C2OC(=O)c2cc(O)c(O)c(O)c2-c2c1cc(O)c(O)c2O)C1OC(=O)c2c-4c(O)c(O)c(O)c2C1O (stereo not shown) [vescalagin, Vescalagin]
PeH in presence of phenol compound: 100 10^−3 pH/ml/h
